# Measurements taken from US8124793B2, “Derivatives of ethylene methanedisulfonate as cancer chemotherapeutic agents” (priority 2007, dated 2012).
# Tests used:
# Assay type in all cases: cell-based
# [1] = tested on: CCRF-CEM; assay: NCI screen, growth of human tumor cells: Leukemia CCRF-CEM; details: CCRF-CEM (Leukemia), 10^−4 molar
# Summary of the method: (§1)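 Percent-growth read-out from the NCI cancer cell screen; data annotated by cancer type and molar concentration, ≥60 points per compound.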
# [2] = tested on: RPMI-8226; assay: NCI screen, growth of human tumor cells: Leukemia RPMI-8226; details: RPMI-8226 (Leukemia), 10^−4 molar
# Summary of the method: as §1
# [3] = tested on: SR; assay: NCI screen, growth of human tumor cells: Leukemia SR; details: SR (Leukemia), 10^−4 molar
# Summary of the method: as §1
# [4] = tested on: AS49/ATCC; assay: NCI screen, growth of human tumor cells: Non-Small Cell Lung AS49/ATCC; details: AS49/ATCC (Non-Small Cell Lung), 10^−4 molar
# Method: (§2) In the NCI screening process, each compound was tested and described by a minimum of 60 data points. The test data include, but are not limited to the type of cancer, the molar concentration used in the screen, and the percent growth of the cancer. In some cases, NMR and elemental analysis were used for structural assignment.
# [5] = tested on: HOP-62; assay: NCI screen, growth of human tumor cells: Non-Small Cell Lung HOP-62; details: HOP-62 (Non-Small Cell Lung), 10^−4 molar
# Summary of the method: as §1
# [6] = tested on: NCI-H226; assay: NCI screen, growth of human tumor cells: Non-Small Cell Lung NCI-H226; details: NCI-H226, 10^−4 molar
# Summary of the method: as §1
# [7] = tested on: NCI-H522; assay: NCI screen, growth of human tumor cells: Non-Small Cell Lung NCI-H522; details: NCI-H522, 10^−4 molar
# Method: as §2
# [8] = tested on: NCI-H322M; assay: NCI screen, growth of human tumor cells: Non-Small Cell Lung NCI-H322M; details: NCI-H322M (Non-Small Cell Lung), 10^−4 molar
# Method: as §2
# [9] = tested on: NCI-H23; assay: NCI screen, growth of human tumor cells: Non-Small Cell Lung NCI-H23; details: NCI-H23, 10^−4 molar
# Summary of the method: as §1
# [10] = tested on: COLO205; assay: NCI screen, growth of human tumor cells: Colon Cancer COLO205; details: COLO205, 10^−4 molar
# Summary of the method: as §1
# [11] = tested on: HCT-116; assay: NCI screen, growth of human tumor cells: Colon Cancer HCT-116; details: HCT-116 (Colon Cancer), 10^−4 molar
# Summary of the method: as §1
# [12] = tested on: HT29; assay: NCI screen, growth of human tumor cells: Colon Cancer HT29
# Method: as §2
# [13] = tested on: KM12; assay: NCI screen, growth of human tumor cells: Colon Cancer KM12; details: KM12 (Colon Cancer), 10^−4 molar
# Summary of the method: as §1
# [14] = tested on: SF-268; assay: NCI screen, growth of human tumor cells: CNS Cancer SF-268; details: SF-268 (CNS Cancer), 10^−4 molar
# Summary of the method: as §1
# [15] = tested on: SF-295; assay: NCI screen, growth of human tumor cells: CNS Cancer SF-295; details: SF-295, 10^−4 molar
# Summary of the method: as §1
# [16] = tested on: SF-539; assay: NCI screen, growth of human tumor cells: CNS Cancer SF-539; details: SF-539, 10^−4 molar
# Summary of the method: as §1
# [17] = tested on: U-251; assay: NCI screen, growth of human tumor cells: CNS Cancer U-251; details: U-251 (CNS Cancer), 10^−4 molar
# Summary of the method: as §1
# [18] = tested on: M14; assay: NCI screen, growth of human tumor cells: Melanoma M14; details: M14 (Melanoma), 10^−4 molar
# Summary of the method: as §1
# [19] = tested on: MALME-3M; assay: NCI screen, growth of human tumor cells: Melanoma MALME-3M; details: MALME-3M, 10^−4 molar
# Method: as §2
# [20] = tested on: SK-MEL-2; assay: NCI screen, growth of human tumor cells: Melanoma SK-MEL-2; details: SK-MEL-2 (Melanoma), 10^−4 molar
# Method: as §2
# [21] = tested on: SK-MEL-28; assay: NCI screen, growth of human tumor cells: Melanoma SK-MEL-28
# Method: as §2
# [22] = tested on: SK-MEL-5; assay: NCI screen, growth of human tumor cells: Melanoma SK-MEL-5; details: SK-MEL-5, 10^−4 molar
# Summary of the method: as §1
# [23] = tested on: UACC-257; assay: NCI screen, growth of human tumor cells: Melanoma UACC-257; details: UACC-257 (Melanoma), 10^−4 molar
# Method: as §2
# [24] = tested on: UACC-62; assay: NCI screen, growth of human tumor cells: Melanoma UACC-62; details: UACC-62, 10^−4 molar
# Summary of the method: as §1
# [25] = tested on: IGROVI; assay: NCI screen, growth of human tumor cells: Ovarian Cancer IGROVI; details: IGROVI (Ovarian Cancer), 10^−4 molar
# Method: as §2
# [26] = tested on: SK-OV-3; assay: NCI screen, growth of human tumor cells: Ovarian Cancer SK-OV-3; details: SK-OV-3 (Ovarian Cancer), 10^−4 molar
# Method: as §2
# [27] = tested on: OVCAR-3; assay: NCI screen, growth of human tumor cells: Ovarian Cancer OVCAR-3; details: OVCAR-3 (Ovarian Cancer), 10^−4 molar
# Summary of the method: as §1
# [28] = tested on: OVCAR-5; assay: NCI screen, growth of human tumor cells: Ovarian Cancer OVCAR-5; details: OVCAR-5, 10^−4 molar
# Method: as §2
# [29] = tested on: ACHN; assay: NCI screen, growth of human tumor cells: Renal Cancer ACHN; details: ACHN (Renal Cancer), 10^−4 molar
# Summary of the method: as §1
# [30] = tested on: RXF-393; assay: NCI screen, growth of human tumor cells: Renal Cancer RXF-393; details: RXF-393 (Renal Cancer), 10^−4 molar
# Summary of the method: as §1
# [31] = tested on: SN12C; assay: NCI screen, growth of human tumor cells: Renal Cancer SN12C; details: SN12C (Renal Cancer), 10^−4 molar
# Summary of the method: as §1
# [32] = tested on: DU-145; assay: NCI screen, growth of human tumor cells: Prostate Cancer DU-145; details: DV-145, 10^−4 molar
# Summary of the method: as §1
# [33] = tested on: MCF 7; assay: NCI screen, growth of human tumor cells: Breast Cancer MCF 7; details: MCF 7 (Breast Cancer), 10^−4 molar
# Method: as §2
# [34] = tested on: BT-549; assay: NCI screen, growth of human tumor cells: Breast Cancer BT-549; details: BT-549 (Breast Cancer), 10^−4 molar
# Summary of the method: as §1
# [35] = tested on: HS 578T; assay: NCI screen, growth of human tumor cells: Breast Cancer HS 578T; details: HS 578T (Breast Cancer), 10^−4 molar
# Summary of the method: as §1
# [36] = tested on: human cancer cells; assay: NCI screen summary over the cancers tested (negative growth of human cancer cells); details: cancers with negative growth / cancers tested
# Method: as §2
# The derivatives in the tables are grouped using the same category as in the tables 1-6.
compound,measurement,setting,value
"CC1=C(CC2(C(=O)C(F)(F)C(F)(F)C(F)(F)F)S(=O)(=O)OCCOS2(=O)=O)C(=O)c2ccccc2C1=O [NSC 720683, ethylene perfluorobutyril-(3-methyl-1,4-naphtho-2-quinoyl)-1,1-ethanedisulfonate]",percent of growth of human tumor cells,[1],5%
same,percent of growth of human tumor cells,[2],28%
same,percent of growth of human tumor cells,[3],−22%
same,percent of growth of human tumor cells,[4],−45%
same,percent of growth of human tumor cells,[5],−28%
same,% Growth,[6],−68%
same,% Growth,[7],−68%
same,percent of growth of human tumor cells,[8],25%
same,% Growth,[9],−75%
same,% Growth,[10],−84%
same,percent of growth of human tumor cells,[11],22%
same,% Growth,"[12]; HT-29, 10^−4 molar",−100%
same,% Growth,"[12]; HT-29, 10^−5 molar",−37%
same,% Growth,"[12]; HT-29, 10^−6 molar",−6%
same,% Growth,"[12]; HT-29, 10^−7 molar",23%
same,percent of growth of human tumor cells,[13],26%
same,percent of growth of human tumor cells,[14],1%
same,% Growth,[15],−70%
same,% Growth,[16],−67%
same,percent of growth of human tumor cells,[17],12%
same,percent of growth of human tumor cells,[18],−56%
same,% Growth,[19],−87%
same,percent of growth of human tumor cells,[20],−57%
same,% Growth,"[21]; SK-MEL-28, 10^−4 molar",−85%
same,% Growth,"[21]; SK-MEL-28, 10^−5 molar",−55%
same,% Growth,"[21]; SK-MEL-28, 10^−6 molar",−31%
same,% Growth,"[21]; SK-MEL-28, 10^−7 molar",31%
same,% Growth,"[21]; SK-MEL-28, 10^−8 molar",74%
same,% Growth,[22],−95%
same,percent of growth of human tumor cells,[23],−18%
same,% Growth,[24],−85%
same,percent of growth of human tumor cells,[25],27%
same,percent of growth of human tumor cells,[26],24%
same,percent of growth of human tumor cells,[27],30%
same,% Growth,[28],−71%
same,percent of growth of human tumor cells,[29],−27%
same,percent of growth of human tumor cells,[30],9%
same,percent of growth of human tumor cells,[31],−37%
same,% Growth,[32],−100%
same,percent of growth of human tumor cells,[33],−24%
same,percent of growth of human tumor cells,[34],−50%
same,percent of growth of human tumor cells,[35],−14%
same,Percentage of cancers showing negative growth cancers tested,[36]; 10^−5 M conc.,100%
same,Percentage of cancers showing negative growth cancers tested,[36]; 10^−6 M conc.,100%
